Converted amounts (≈) assume the structure as drawn. Marks after values point to notes of the source that are not given here.
Tests used:
[1] = Weekly food intake of SHR rats; format: in vivo, rat
Outline: (§1)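 Male and female SHR rats (200-250 g, 8/group) dosed intragastrically once daily for 8 weeks with test compounds at 60 or 120 mg/kg/d or captopril 27 mg/kg; Wistar and SHR controls received distilled water. Body weight and food intake observed during treatment.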

[2] = Weekly body weight of SHR rats; format: in vivo, rat
Outline: as §1

[3] = system: spontaneously hypertensive rats (SHR); experiment: Caudal artery systolic pressure of spontaneously hypertensive rats, single administration; format: in vivo, rat; details: x ± s, n = 8
Outline: (§2)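 SHR rats of both sexes (200–250 g, 8/group) dosed intragastrically with 60 or 120 mg/kg/d, or captopril 27 mg/kg, once daily for 8 weeks; Wistar rats and vehicle SHR served as controls. Tail-cuff systolic pressure taken as the mean of 3 readings, measured before dosing and 30–120 min after the first dose, or 30 min post-dose on days 1–56 for chronic treatment.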

[4] = system: spontaneously hypertensive rats (SHR); experiment: Caudal artery systolic pressure of spontaneously hypertensive rats, 8 weeks of continuous medication; format: in vivo, rat; details: x ± s, n = 8
Outline: as §2

[5] = physchem; details: water, thermodynamic from solid
Description: Measuring method: samples are ground to obtain fine powder, target compounds are quantitatively weighed, the weighed compounds are added into purified water, and the solubility of the compounds is investigated by ultrasonics.

[6] = 60 mg/kg/d intragastric, week 0
[7] = 60 mg/kg/d intragastric, week 1
[8] = 60 mg/kg/d intragastric, week 2
[9] = 60 mg/kg/d intragastric, week 3
[10] = 60 mg/kg/d intragastric, week 4
[11] = 60 mg/kg/d intragastric, week 5
[12] = 60 mg/kg/d intragastric, week 6
[13] = 60 mg/kg/d intragastric, week 7
[14] = 60 mg/kg/d intragastric, week 8
[15] = 120 mg/kg/d intragastric, week 0
[16] = 120 mg/kg/d intragastric, week 1
[17] = 120 mg/kg/d intragastric, week 2
[18] = 120 mg/kg/d intragastric, week 3
[19] = 120 mg/kg/d intragastric, week 4
[20] = 120 mg/kg/d intragastric, week 5
[21] = 120 mg/kg/d intragastric, week 6
[22] = 120 mg/kg/d intragastric, week 7
[23] = 120 mg/kg/d intragastric, week 8

## Cc1nc(C)c(CO[C@H]2C(=O)O[C@H]3O[C@]45C(=O)OC6C[C@@H](C(C)(C)C)C32[C@@]64[C@@H](O)[C@@H]2OC(=O)[C@@H](C)[C@@]25O)nc1C (some centres unmarked) [BM]
[1]; [6]
  Average dairy food intake: 18.2 g/day
[1]; [7]
  Average dairy food intake: 19.1^▴ g/d
[1]; [8]
  Average dairy food intake: 19.9^▴ g/d
[1]; [9]
  Average dairy food intake: 20.9^▴▴ g/d
[1]; [10]
  Average dairy food intake: 21.3^▴▴ g/d
[1]; [11]
  Average dairy food intake: 22.4^▴▴ g/d
[1]; [12]
  Average dairy food intake: 23.1^▴▴ g/d
[1]; [13]
  Average dairy food intake: 24.7^▴▴ g/d
[1]; [14]
  Average dairy food intake: 25.5^▴▴ g/d
[1]; [15]
  Average dairy food intake: 18.5 g/day
[1]; [16]
  Average dairy food intake: 19.9^▴ g/d
[1]; [17]
  Average dairy food intake: 20.7^▴▴ g/d
[1]; [18]
  Average dairy food intake: 22.6^▴▴ g/d
[1]; [19]
  Average dairy food intake: 22.9^▴▴ g/d
[1]; [20]
  Average dairy food intake: 23.7^▴▴ g/d
[1]; [21]
  Average dairy food intake: 24.4^▴▴ g/d
[1]; [22]
  Average dairy food intake: 25.8^▴▴ g/d
[1]; [23]
  Average dairy food intake: 27.6^▴▴ g/d
[2]; [6]
  Body weight: 231.5 g
[2]; [7]
  Body weight: 236.8 g
[2]; [8]
  Body weight: 245.7^▴▴ g
[2]; [9]
  Body weight: 253.4 g
[2]; [10]
  Body weight: 258.3 g
[2]; [11]
  Body weight: 263.5^▴ g
[2]; [12]
  Body weight: 271.3^▴▴ g
[2]; [13]
  Body weight: 281.6^▴▴ g
[2]; [14]
  Body weight: 292.5^▴▴ g
[2]; [15]
  Body weight: 233.4 g
[2]; [16]
  Body weight: 249.5^▴▴ g
[2]; [17]
  Body weight: 256.8^▴▴ g
[2]; [18]
  Body weight: 264.3^▴▴ g
[2]; [19]
  Body weight: 271.6^▴▴ g
[2]; [20]
  Body weight: 280.4^▴▴ g
[2]; [21]
  Body weight: 290.5^▴▴ g
[2]; [22]
  Body weight: 305.7^▴▴ g
[2]; [23]
  Body weight: 315.8^▴▴ g
[3]; 60 mg/kg intragastric single administration, 30 min
  Systolic pressure: 156.21 ± 9.68 mmHg
[3]; 60 mg/kg intragastric single administration, 60 min
  Systolic pressure: 152.06 ± 9.78 mmHg
[3]; 60 mg/kg intragastric single administration, 90 min
  Systolic pressure: 151.74 ± 13.15 mmHg
[3]; 60 mg/kg intragastric single administration, 120 min
  Systolic pressure: 152.52 ± 15.06 mmHg
[3]; 60 mg/kg intragastric single administration, before administration
  Systolic pressure: 166.27 ± 14.01 mmHg
[3]; 120 mg/kg intragastric single administration, 30 min
  Systolic pressure: 149.04 ± 10.95 mmHg
[3]; 120 mg/kg intragastric single administration, 60 min
  Systolic pressure: 151.58 ± 9.85 mmHg
[3]; 120 mg/kg intragastric single administration, 90 min
  Systolic pressure: 153.65 ± 11.04 mmHg
[3]; 120 mg/kg intragastric single administration, 120 min
  Systolic pressure: 151.00 ± 9.85 mmHg
[3]; 120 mg/kg intragastric single administration, before administration
  Systolic pressure: 163.45 ± 15.24 mmHg
[4]; 60 mg/kg/d intragastric continuous, 1 d, 30 min after administration
  Systolic pressure: 155.25 ± 12.36 mmHg
[4]; 60 mg/kg/d intragastric continuous, 7 d, 30 min after administration
  Systolic pressure: 154.85 ± 10.49 mmHg
[4]; 60 mg/kg/d intragastric continuous, 13 d, 30 min after administration
  Systolic pressure: 153.26 ± 12.95 mmHg
[4]; 60 mg/kg/d intragastric continuous, 19 d, 30 min after administration
  Systolic pressure: 156.74 ± 10.36 mmHg
[4]; 60 mg/kg/d intragastric continuous, 25 d, 30 min after administration
  Systolic pressure: 154.75 ± 10.39 mmHg
[4]; 60 mg/kg/d intragastric continuous, 35 d, 30 min after administration
  Systolic pressure: 151.48 ± 10.32 mmHg
[4]; 60 mg/kg/d intragastric continuous, 49 d, 30 min after administration
  Systolic pressure: 151.17 ± 14.05 mmHg
[4]; 60 mg/kg/d intragastric continuous, 56 d, 30 min after administration
  Systolic pressure: 154.64 ± 11.42 mmHg
[4]; 60 mg/kg/d intragastric continuous, before administration
  Systolic pressure: 166.27 ± 14.01 mmHg
[4]; 120 mg/kg/d intragastric continuous, 1 d, 30 min after administration
  Systolic pressure: 154.62 ± 5.74 mmHg
[4]; 120 mg/kg/d intragastric continuous, 7 d, 30 min after administration
  Systolic pressure: 152.31 ± 10.56 mmHg
[4]; 120 mg/kg/d intragastric continuous, 13 d, 30 min after administration
  Systolic pressure: 151.58 ± 12.06 mmHg
[4]; 120 mg/kg/d intragastric continuous, 19 d, 30 min after administration
  Systolic pressure: 153.06 ± 10.41 mmHg
[4]; 120 mg/kg/d intragastric continuous, 25 d, 30 min after administration
  Systolic pressure: 148.54 ± 11.62 mmHg
[4]; 120 mg/kg/d intragastric continuous, 35 d, 30 min after administration
  Systolic pressure: 149.36 ± 10.75 mmHg
[4]; 120 mg/kg/d intragastric continuous, 49 d, 30 min after administration
  Systolic pressure: 150.32 ± 9.59 mmHg
[4]; 120 mg/kg/d intragastric continuous, 56 d, 30 min after administration
  Systolic pressure: 149.78 ± 11.64 mmHg
[4]; 120 mg/kg/d intragastric continuous, before administration
  Systolic pressure: 163.45 ± 15.24 mmHg
[5]
  solubility: 250 µg/mL (≈ 448 µM)

Reference: US10875874B2, “Ginkgolide B derivative and preparation method and use thereof” (Chengdu Baiyu Ginkgolide Pharmaceuticals Co., Ltd., priority 2015, dated 2020)
